From paper PMC5378937 (The Journal of Pharmacology and Experimental Therapeutics, 2016)
Changes are numbered by the printed parent chain. “Also recorded” adds a separate entry of the source. Like-named read-outs stand apart in the source and are kept apart here.

Tests used:
[1] = tested on: 5-HT-evoked contractions of guinea pig ileum; experiment: 5-HT-evoked contraction of isolated guinea pig ileum
Description: Guinea pig ileum was obtained from adult male guinea pigs (200–300 g). The ileum was cut into 1-cm lengths and mounted longitudinally to a force transducer with a resting tension of 0.5 g in a 10-ml water-jacketed organ bath containing Krebs’ buffer (118 mM NaCl, 4.7 mM KCl, 1.2 mM MgSO4, 1.25 mM CaCl2, 11 mM glucose, 10 mM HEPES, pH 7.2) continuously aerated with 95% O2/5% CO2 and kept at 37°C. The ileum segments were allowed to equilibrate for 10 minutes before the experiments were started, and contractile responses were recorded using LabChart 6 (ADInstruments Ltd., Oxford, UK). […] Following drug applications, the organ bath was flushed twice with fresh Krebs’ solution, and the ileum was allowed to recover for 10 minutes prior to the next application. […] Experiments involving animals were approved by the University of Cambridge Animal Welfare and Ethical Review Body (reference: PHARM 004/15).

[2] = tested on: 5-HT-induced contractions in rat trachea; experiment: 5-HT-induced contraction of isolated rat trachea; details: granisetron 10 µM
Description: The trachea was removed from male Wistar albino rats (250–350 g), cut into 2-cm lengths, and mounted on a force transducer with a resting tension of 1.0 g in a 10-ml water-jacketed organ bath containing modified Tyrode’s solution (136 mM NaCl, 5 mM KCl, 0.98 mM MgCl2, 0.36 mM NaH2PO4, 2 mM CaCl2, 11.9 mM NaHCO3, 5.5 mM glucose, pH 7.4) continuously aerated with 95% O2/5% CO2 and kept at 37°C. Contractile responses were recorded using a force transducer (model FT03; Grass Technologies, Quincy, MA) connected to a PC-based data acquisition system (Dataq, PM-1000; DATAQ Instruments Inc., Akron, OH). The experiments were conducted after an equilibration period of 60 minutes and three successive similar contractile responses. Experiments were approved by the local animal ethics committee (protocol number 00084/2014.2).

5-HT3 receptors = target: 5-HT3 receptors; design: method as in Ashoor et al., 2013; details: ref Ashoor et al., 2013; cited from earlier work
[3] = target: T1, human 5-HT3 receptors (5-HT3A) (Homo sapiens, UniProt P46098); experiment: Two-electrode voltage clamp of 5-HT-evoked currents in Xenopus oocytes expressing 5-HT3 receptors, nonlinear mixed-effects modeling
T1 sequence (P46098 24-478): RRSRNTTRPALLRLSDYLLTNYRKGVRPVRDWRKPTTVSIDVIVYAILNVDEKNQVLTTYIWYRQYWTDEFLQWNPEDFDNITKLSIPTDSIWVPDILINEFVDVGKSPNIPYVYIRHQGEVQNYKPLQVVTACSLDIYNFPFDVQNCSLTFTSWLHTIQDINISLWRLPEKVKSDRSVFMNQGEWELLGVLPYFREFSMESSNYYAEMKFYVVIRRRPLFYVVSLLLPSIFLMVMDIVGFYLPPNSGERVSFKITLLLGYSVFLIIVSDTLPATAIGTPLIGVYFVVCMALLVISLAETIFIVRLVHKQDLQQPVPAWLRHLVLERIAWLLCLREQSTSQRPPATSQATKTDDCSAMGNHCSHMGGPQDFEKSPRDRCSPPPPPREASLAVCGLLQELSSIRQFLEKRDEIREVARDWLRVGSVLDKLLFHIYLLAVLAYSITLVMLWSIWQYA
Description: 5-HT3A subunit cDNA was cloned into pGEMHE for oocyte expression. cRNA was transcribed in vitro from a linearized plasmid cDNA template using the mMessage mMachine Ultra T7 Transcription kit (Ambion, Austin, TX). Stage V and VI oocytes were injected with 50 nl of 100–500 ng µl^−1 cRNA (5–25 ng injected), and currents were recorded 1–4 days postinjection.
Specifically, NONMEM allows the modeling of the relationship between drug and response, and importantly, the random between-oocyte variance, which is considerable. NONMEM enabled a single unified model to be created that included all electrophysiological agonist and antagonist data. […] The ability to allow for between-oocyte variance enabled raw peak currents to be analyzed, rather than normalized values. Normalization can obscure relationships between parameters, resulting in inaccurate and imprecise estimates of drug effects. Differences in peak currents and agonist potency between different oocytes were modeled with population variances (ω^2) associated with model parameters.
A structural model defined the relationship between the independent variables (i.e., agonist and antagonist concentrations) and the peak current (dependent variable).
The effect of time on the agonist response was modeled linearly as:(2) [drawing 2] where Max0 = as in eq. 1; MaxT = PRED when [A] = ∞ at time T; T = time (hours) from start of individual experiment; and nT = change in response per hour expressed as a proportion of the response at T = 0 (nT = 0 represents no change; nT = −0.1 represents a reduction of 10%, and nT = 0.1 represents an increase of 10% per hour).
The effect of the compounds on MaxT was modeled as follows:(3) [drawing 3] where MaxT = PRED when [A] = ∞ in the absence of drug D at time T (eq. 2); Max(D) = PRED when [A] = ∞ in the presence of drug D at time T; [D] = concentration of inhibitor drug; pIC50 = −log10[D] in the presence of which Max(D) = MaxT/2; and nH(D) = inhibitor Hill coefficient. (This model assumes that, when [D] = ∞, PRED = 0.)

5-HT3 receptor [4] = target: T2, 5-HT3 receptor (Homo sapiens, UniProt P46098); experiment: Flow cytometry competition binding with 10 nM fluorescent granisetron (G-FL) in HEK293 cells; design: expressed in transfected cells; host or cells: HEK293 cells, transient transfection with pcDNA3.1 construct; details: concentrations up to 1 mM, n = 3
T2 sequence (P46098 24-478): T1 sequence (P46098 24-478)
Description: 5-HT3A subunit cDNA was cloned into pcDNA3.1 for expression in HEK293 cells (ThermoFisher Scientific, Waltham, MA). Cells were transiently transfected with this cDNA using polyethyleneimine (25 kDa, linear, powder; Polysciences Inc., Eppelheim, Germany). Thirty microliters of polyethyleneimine (1 mg ml^−1), 5 μg of cDNA, and 1 ml of DMEM were incubated for 10 minutes at room temperature, added dropwise to a 90-mm plate of 70–80% confluent HEK293 cells, and incubated for 2–3 days before use.
HEK293 cells expressing the 5-HT3 receptor were grown in monolayers and harvested from a 90-mm culture dish using 10 ml of Trypsin-EDTA (Sigma-Aldrich) for 10 minutes at 37°C. Digestion was terminated by the addition of 25 ml DMEM + 10% fetal bovine serum, and cells were pelleted at low speed for 2 minutes. […] Competition binding was measured by incubating HEK293 cells with different concentrations of nonlabeled ligands and 10 nM fluorescent granisetron (G-FL). […] The geometric mean was measured at each concentration of test compound and fitted to eq. 1 (see the following section) using a least-squares method (GraphPad Prism v4; GraphPad Software, La Jolla, CA).

5-HT3 receptor [5] = target: T2, 5-HT3 receptor; experiment: Dual application with bilobalide or diltiazem (allotopic vs syntopic inhibition), oocytes; format: cell-based; design: expressed in transfected cells; host or cells: Xenopus oocytes injected with cRNA transcribed from pGEMHE; details: 100 µM 5-HT
Description: Dual application studies were performed as previously described ([Jarvis and Thompson, 2013]). This is a simple method to determine whether two channel blockers share the same binding site (syntopic inhibition) or bind to separate locations (allotopic inhibition). […] Concentrations of the test compounds, BB and DTZ, were selected such that they caused approximately 62% inhibition when used alone. From the results of these experiments, predicted levels of inhibition were derived for both allotopic and syntopic modes of action. These predictions were compared with data obtained experimentally using the same concentrations of the inhibitors acting together. For each oocyte, the change in the amplitude of the 5-HT response over time was monitored and taken into account. Inhibition by drugs was quantified in relation to interpolated control responses for each time point.
The dual application measurements were compared statistically with allotopic and syntopic predictions using a two-way analysis of variance in which the oocyte was included as a random effect (SPSS Statistics 20; IBM, Armonk, NY). Post-hoc testing was with Dunnett’s method, comparing the measured data to each of the predictions.

5-HT3AT6'S receptors = target: T3, 5-HT3AT6'S receptors (Homo sapiens, UniProt P46098, T279S); experiment: Two-electrode voltage clamp in oocytes expressing the 5-HT3AT6'S receptor mutant; format: cell-based; details: for ΔpEC50 (ΔpIC50 for inhibitors, T6'S vs wild-type): 2 µM 5-HT; for IC50: read-out: pEC50 (pIC50 for inhibitors) at T6'S mutant (converted)
T3 construct: expressed in transfected cells; host or cells: Xenopus oocytes
T3 sequence (P46098 24-478 T279S): T1 sequence (P46098 24-478) with T256S
Description: Microelectrodes were fabricated from borosilicate glass (GC120TF-10; Harvard Apparatus, Edenbridge, Kent, UK) using a two-stage horizontal pull (P-97; Sutter Instrument Company, Novato, CA) and filled with 3 M KCl. Pipette resistances ranged from 0.8 to 2.0 MΩ. Oocytes were placed in a perfusion chamber made from 2-mm-wide × 30-mm-long silicon tubing that was cut in half lengthways (total volume ∼0.1 ml), and were perfused with ND96 at a rate of 12 ml min^−1. Drug application was via a simple gravity-fed system calibrated to run at the same rate. […] A 3-minute wash was used between compound applications. Oils were dissolved in buffer containing 1% DMSO, freshly prepared each day, and constantly stirred during the experiments.
The effects of the compounds on 5-HT3AT6'S receptors were also evaluated. […] Parameters were incorporated into the model that defined changes in pEC50, pIC50, Max0, and pA2 values for 5-HT3AT6'S receptors. These parameters were statistically evaluated as described earlier.
Parameters were included in the model that allowed differences in agonist and inhibitory effects to be quantified and evaluated.

[6] = IC50 (inhibition of 5-HT-evoked currents), wild-type, from nonlinear mixed-effects model
[7] = IC50 derived from normalized data, wild-type, normalized data instead of mixed-effects model
[8] = wild-type, population parameter estimate
[9] = wild-type, population parameter estimate, listed as Eucalyptol

| IC50 [3, 6] [µM] | IC50 [3, 7] [µM] | nH (inhibitor Hill coefficient) [3, 8] | Measured dual inhibition with diltiazem compared with predictions (5-HT3 receptor [5]) | Reduction of inhibitory potency compared with wild-type receptors (5-HT3AT6'S receptors) | ΔpEC50 (ΔpIC50 for inhibitors, T6'S vs wild-type) (5-HT3AT6'S receptors) | IC50 (5-HT3AT6'S receptors) [µM] | SMILES | Effect on agonist (5-HT) pEC50 (interpretation of nG hypothesis test) ([3]; wild-type) | Competition with G-FL binding (5-HT3 receptor [4]) | Measured dual inhibition with bilobalide compared with predictions (5-HT3 receptor [5]) | Agonist action when applied alone (5-HT3AT6'S receptors) | other results |
| --- | --- | --- | --- | --- | --- | --- | --- | --- | --- | --- | --- | --- |
|  |  |  |  |  |  |  | CN1C2CCCC1CC(NC(=O)c1nn(C)c3ccccc13)C2 (centres unmarked) [granisetron] |  |  |  |  | Effect on 5-HT-evoked contractions [1]: inhibited; Effect on 5-HT-induced contractions [2]: substantially inhibited |
|  |  |  |  |  |  |  | CC1CCC(C(C)C)C(O)C1 (centres unmarked) [menthol] |  |  |  |  | IC50 (5-HT3 receptors): 163 µM |
| 141 | 83 | 2.2 | greater than the allotopic prediction | approximately 2 fold | −0.34 ± 0.04 | 309 | C=CC(C)(O)CCC=C(C)C (centres unmarked) [linalool] | No/weak evidence that linalool changes agonist pEC50 | unaffected; also recorded: no competition | greater than the allotopic prediction | did not evoke currents; also recorded: no agonist action | nH (inhibitor Hill coefficient) ([3]; wild-type, population parameter estimate, listed as Linalool): 2.19 ± 0.26 |
|  |  |  |  |  |  |  | NCCc1c[nH]c2ccc(O)cc12 [5-HT, 5-hydroxytryptamine, reference compound] |  |  |  |  | 5-HT nH (agonist Hill coefficient) ([3]; wild-type): 2.94 ± 0.13; Max (maximal 5-HT peak current) [3, 8]: 4.94 ± 0.64 µA; Increase in 5-HT sensitivity in the T6'S mutant (5-HT3AT6'S receptors): 2 fold; ΔpEC50 (T6'S vs wild-type) (5-HT3AT6'S receptors; agonist 5-HT): 0.35 ± 0.07 |
| 258 | 174 | 1.0 | greater than the allotopic prediction | approximately 2 fold | −0.45 ± 0.22 | 724 | CC12CCC(CC1)C(C)(C)O2 [eucalyptol] | Strong evidence that eucalyptol changes agonist pEC50 | unaffected; also recorded: no competition |  | did not evoke currents; also recorded: no agonist action | Kb [3]: 813 µM; nS (Schild coefficient) [3, 8]: 1.7; pA2 (shift in agonist pEC50) [3, 8]: 3.09; nH (inhibitor Hill coefficient) [3, 9]: 1.04 ± 0.11; nS (Schild coefficient) [3, 9]: 1.70 ± 0.24; Effect on 5-HT pEC50 at T6'S (5-HT3AT6'S receptors): did not alter the 5-HT pEC50 |

| SMILES | IC50 [3, 6] [µM] | IC50 [3, 7] [µM] | nH (inhibitor Hill coefficient) [3, 8] | Measured dual inhibition with diltiazem compared with predictions (5-HT3 receptor [5]) | Reduction of inhibitory potency compared with wild-type receptors (5-HT3AT6'S receptors) | ΔpEC50 (ΔpIC50 for inhibitors, T6'S vs wild-type) (5-HT3AT6'S receptors) | IC50 (5-HT3AT6'S receptors) [µM] | Effect on agonist (5-HT) pEC50 (interpretation of nG hypothesis test) ([3]; wild-type) | Competition with G-FL binding (5-HT3 receptor [4]) | Measured dual inhibition with bilobalide compared with predictions (5-HT3 receptor [5]) | Agonist action when applied alone (5-HT3AT6'S receptors) | other results |
| --- | --- | --- | --- | --- | --- | --- | --- | --- | --- | --- | --- | --- |
| CC(C)=CCCC(C)=CC=O (mixture of isomers) [citral] | 120 | 98 | 1.3 | no different from the allotopic predictions | approximately 2 fold | −0.36 ± 0.10 | 282 |  | unaffected; also recorded: no competition | no different from the allotopic predictions | did not evoke currents; also recorded: no agonist action | Effect on agonist (5-HT) pEC50 (interpretation of nG hypothesis test) [3]: No evidence that citral changes agonist pEC50; nH (inhibitor Hill coefficient) ([3]; wild-type, population parameter estimate, listed as Citral): 1.34 ± 0.08 |
